Measurements from US20150250167A1, “COMPOSITION FOR NOXIOUS ORGANISMS-CONTROLLING AGENT AND METHOD FOR USING THE SAME” (priority 2001, published 2015).

Key:
[1] = system: Green Peach Aphid (Myzus persicae); assay: Insecticidal test on green peach aphid, spraying of Chinese cabbage, control value; type: in vivo; conditions: 100 ppm, single agent, 6 days after spraying
[2] = system: Rice Leafroller (Cnaphalocrosis medinalis); assay: Control of rice leafroller on paddyfield rice by nursery box application, number of injured leaves; type: in vivo; conditions: 0.5 g ai/Box, single agent
Method in brief: (§1)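 Rice (cv. Nihombare) in nursery boxes received 50 g granules, then was transplanted to paddy in mid-May. Planthopper: insects counted on 30 hills/plot at 40 and 60 days post-transplant. Leafroller: injured leaves counted on 100 hills/plot at 50 days.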

[3] = system: Diamondback Moth (Plutella xyloxtella); assay: Control of diamondback moth on cabbage by soil treatment, number of parasitic insects; type: in vivo; conditions: 5 mg ai/hill, 21 days after transplanting
Method in brief: (§2)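 Cabbage (YR Seitoku) treated with granular preparation via bed-soil incorporation at sowing, or at leaf-extraction, pre-transplant, planting-hole or post-planting plant-foot stage.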

[4] = system: Cutworm; assay: Test for the effect against cutworm on beet, drench, number of injured hills per 100 hills; type: in vivo; conditions: 15 g ai/10a
Protocol: Test for the Effect Against Cutworm on Beet
Beet seedlings (variety: Monoace S) planted in a paper pot was treated with 3 L/m^2 of a solution of an agent diluted to a predetermined concentration, by the method of drench. Just after the drench, the plant was set. Predetermined days after the setting, the number of injured hills per 100 hills was counted.

[5] = system: Aphid; assay: Control of aphid on cabbage by soil treatment, number of parasitic insects; type: in vivo; conditions: 5 mg ai/hill, 21 days after transplanting
Method in brief: as §2

[6] = system: Brown Rice Planthopper (Nilaparvata lugens); assay: Insecticidal test on brown rice planthopper, rice seedling dipping; type: in vivo; conditions: 100 ppm, single agent
[7] = system: Resistant Strain of Two-Spotted Spider Mite; conditions: 100 ppm, single agent, 2 days after spraying
[8] = system: Small Brown Planthopper (Laodelphax striatellus); assay: Control of small brown planthopper on paddyfield rice by nursery box application, number of parasitic insects; type: in vivo; conditions: 0.5 g ai/Box, single agent
Method in brief: as §1

[9] = system: Smaller Tea Tortrix (Adoxophyes orana fosciota); assay: Insecticidal test on smaller tea tortrix, tea leaf dipping; type: in vivo; conditions: single agent 0.3 ppm, 4th instar larvae, 25° C.
Protocol: Insecticidal Test on Smaller Tea Tortrix (Adoxophyes orana fosciota)
Tea leaves were dipped in a solution of a chemical diluted to a prescribed concentration for 30 seconds. […] Four days and seven days after the treatment, the number of alive insects were counted, from which percentage of death was calculated.

[10] = system: Southern Root-Knot Nematode (Meloidogyne incognita); assay: Test for the effect on southern root-knot nematode, soil blending with granular preparation; type: in vivo; conditions: 300 g ai/10a, single agent, 60 days after treatment
[11] = system: Rice Water Weevil (Lissorhoptrus oryzophilus); assay: Control of rice water weevil on paddyfield rice by nursery box application, extent of injury; type: in vivo; conditions: 0.5 g ai/Box, single agent
[12] = system: Rice Blast; conditions: in vivo
[13] = system: Citrus Yellow Thrips (Frankliniella occidentalis); assay: Control of citrus yellow thrips on egg plant by combined use with natural enemy pesticide, number of thrips; type: in vivo; conditions: 100 ppm, spray
[14] = true leaf extraction season treatment

For `CC(C)NC(=O)c1c(I)cccc1C(=O)Nc1ccc(C(F)(F)F)cc1Cl` [Compound 39], which “Control degree (%)” value [1] is on record?
Its value is 0%.

And the “Percentage of injured leaves (%) After 50 days” value [2]?
Its value is 0.25%.

And the “Number of parasitic insects per 30 hills, Diamondback moth” value (from here on “Number … per 30 hills, Diamondback moth”) ([3]; plant foot treatment)?
The value was 2.

And the “Number … per 30 hills, Diamondback moth” value ([3]; pre-transplanting treatment)?
Its value is 4.

What about the “Number … per 30 hills, Diamondback moth” value ([3]; pricking-in hole treatment) of the same compound?
The value was 3.

And the “Number … per 30 hills, Diamondback moth” value ([3]; soil incorporation)?
Its value is 3.

What about the “Number … per 30 hills, Diamondback moth” value [3, 14] of the same compound?
Its value is 2.

And the “Number of injured hills per 100 hills, After 60 days” value [4]?
The value was 0.

And the “Number of injured hills per 100 hills, After 90 days” value [4]?
The value was 6.

And the “Number of injured hills per 100 hills, After 120 days” value [4]?
Its value is 17.

What about the “Number of parasitic insects per 30 hills, Aphid” value (from here on “Number … per 30 hills, Aphid”) ([5]; plant foot treatment) of the same compound?
The value was 456.

And the “Number … per 30 hills, Aphid” value ([5]; pre-transplanting treatment)?
The value was 457.

What about the “Number … per 30 hills, Aphid” value ([5]; pricking-in hole treatment) of the same compound?
The value was 437.

What about the “Number … per 30 hills, Aphid” value ([5]; soil incorporation) of the same compound?
Its value is 513.

And the “Number … per 30 hills, Aphid” value [5, 14]?
Its value is 487.

What about the “Death rate (%) After 1 days” value ([6]; after 1 day) of the same compound?
The value was 0%.

What about the “Death rate (%) After 5 days” value ([6]; after 5 days) of the same compound?
The value was 0%.

And the “Death rate (%)” value [7]?
Its value is 0%.

What about the “Number of parasitic planthoppers per 30 hills After 40 days” value ([8]; after 40 days) of the same compound?
Its value is 343.

And the “Number of parasitic planthoppers per 30 hills After 60 days” value ([8]; after 60 days)?
The value was 372.

What about the “Death rate (%) After 4 days” value [9] of the same compound?
Its value is 0%.

And the “Death rate (%) After 7 days” value [9]?
Its value is 20%.

What about the “Number of nematodes per 25 g of soil sample” value [10] of the same compound?
Its value is 34.

What about the “Extent of injury After 21 days” value [11] of the same compound?
Its value is 38.9.

What about the “Areal rate of disease spot (%) After 60 days” value [12] of the same compound?
Its value is 8.2%.

What about the “Number of parasitic insects per 20 leaves, After 60 days” value [13] of the same compound?
Its value is 19.

What about the “Number of parasitic insects per 20 leaves, After 90 days” value [13] of the same compound?
The value was 32.

And the “Number of parasitic insects per 20 leaves, After 120 days” value [13]?
Its value is 58.
